These results are taken from the NIST ThermoML archive (doi:10.1016/j.tca.2019.178431).

For data set [1] the following is noted: Crystal; DTA.
A short description of data set [2]: Molar enthalpy of transition or fusion. The conditions noted are these: Crystal; DSC.

± gives the expanded uncertainty stated by the source.

`Clc1ccccc1C(c1ccccc1)(c1ccccc1)n1ccnc1` [1-((2-chlorophenyl)diphenylmethyl)-1H-imidazole]: in data set [1], the Normal melting temperature stood at 143.00 ± 0.4 °C. For the same compound, in data set [2], the “Molar enthalpy of transition or fusion” value amounted to 35 ± 0.85 kJ/mol.
